Here are results for twelve molecules from patent US9840513B2 (AbbVie S.à.r.l., priority 2015, dated 2017).

The target in test [1] is T1, F508delCFTR cell surface expression in CFBE41o-F508delCFTR-HRP cells (Homo sapiens, UniProt P13569, DEL508-508).
T1 construct: fused on or other part: Horseradish peroxidase (HRP) reporter inserted in the fourth exofacial (extracellular) loop of CFTR; expression is doxycycline-inducible
Briefly: Cell Surface Expression-Horse Radish Peroxidase (CSE-HRP) Assay. It counts as cell-based. The conditions noted are these: for pEC50: CFBE41o-F508delCFTR-HRP cells, 18-24 hours at 33° C., 8-point curve, highest concentration 20 μM; for Maximum % activity (%): maximum at any tested concentration, normalized to on-plate positive control (3 μM). The method in brief:
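CFBE41o- cells with HRP-tagged F508delCFTR, expression induced by 0.5 μg/mL doxycycline for 72 h at 37 °C, then compound for 18-24 h at 33 °C (8-point, 3-fold, top 20 μM). Surface HRP measured by luminol luminescence; % activity normalised to 3 μM positive-control corrector; EC50 from variable-slope sigmoidal fit, three replicate plates.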

For test [2], the target named is T2, F508delCFTR in primary hBE cells with F508del/F508del CFTR mutation (Homo sapiens, UniProt P13569, DEL508-508).
T2 construct: cells isolated from CF patients with the homozygous mutation; endogenous in cells; host or cells: primary human bronchial epithelial (hBE) cells from F508del/F508del CF patients
Briefly: Transepithelial Clamp Circuit on Human Bronchial Epithelial Cells Conductance Assay (hBE-TECC). It counts as cell-based. The note with it: for pEC50: primary hBE cells F508del/F508del, 18-24 hours at 37° C., equivalent short circuit current, 6 concentrations. The text has this: Transepithelial Clamp Circuit on Human Bronchial Epithelial Cells Conductance Assay:
A cell based assay using the primary human bronchial epithelial cells (hBE) was used as a secondary assay to test novel F508delCFTR correctors for their activity on primary hBE cells with F508del/F508del CFTR mutation. The assay used a TECC-24 (Transepithelial Clamp Circuit for 24 wells) instrument that measures the functionality of the mutated channel by measuring the equivalent short circuit current (Ieq) generated by the polarized epithelial cells. The instrument works by measuring the transepithelial potential difference (Vt) and transepithelial resistance (Rt) in an open circuit format, and the Ieq is calculated by using Ohms law (Ieq=Vt/Rt). The assay was run in a 24-well format and all 24-wells were measured at the same time point giving a higher throughput for this assay.
Primary human bronchial epithelial (hBE) cells from F508del/F508delCFTR patients were expanded from 1×10^6 to 250×10^6 cells (Neuberger T, Burton B, Clark H and VanGoor F; Cystic Fibrosis, Methods in Mole Biol 741; eds. Amaral M D and Kunzelmann K, 2011). For this purpose, cells isolated from CF patients with the homozygous mutation were seeded onto 24 well Corning (Cat #3378) filter plates that were coated with 3T3 conditioned media and grown at an air-liquid interface for 35 days using an Ultroser® G supplemented differentiation media. Apical surface mucus was removed 72 hours before the experiment using 3 mM dithiothreitol (DTT) in phosphate buffered saline (PBS). The apical surface was washed again 24 hours before the experiment using PBS. The cells were incubated with the desired dose response of the corrector compounds 18-24 hours at 37° C., 5% CO2. The corrector compounds are only added on the basolateral side of the epithelial cells.
On the day of measuring the corrector activity on the TECC, the cells were switched into a bicarbonate and serum free F-12 Coon's medium and allowed to equilibrate for 90 minutes in a CO2 free incubator. At the time of measurement, the apical and basolateral sides of the filter were bathed with the F-12 Coon's modification media (with 20 mM 4-(2-hydroxyethyl)-1-piperazineethanesulfonic acid (HEPES), pH 7.4 (using 1 M tris(hydroxymethyl)aminomethane (Tris)), and the measurements were made at 36.5° C. Transepithelial voltage (Vt) and transepithelial resistance (Rt) were measured using a 24 channel transepithelial current clamp (TECC-24). Current responses to the sequential addition of benzamil (apical 6 μM addition; for inhibiting epithelial ENaC channel), forskolin (apical and basolateral 10 μM addition; for activating the CFTR channel), control potentiator (N-(3-carbamoyl-5,5,7,7-tetramethyl-4,7-dihydro-5H-thieno[2,3-c]pyran-2-yl)-1H-pyrazole-5-carboxamide; apical and basolateral […] addition; for potentiating the CFTR channel) and bumetanide (basolateral 20 μM addition; for inhibiting the Na:2Cl:K co-transporter, an indirect measure of inhibiting the Cl-secretion driven by CFTR channel) were measured.
All plates contained negative controls (dimethyl sulfoxide, DMSO) which coupled with the control potentiator (N-(3-carbamoyl-5,5,7,7-tetramethyl-4,7-dihydro-5H-thieno[2,3-c]pyran-2-yl)-1H-pyrazole-5-carboxamide) sets the null response and positive controls (3 μM of 3-[(2R,4R)-4-({[1-(2,2-difluoro-1,3-benzodioxol-5-yl)cyclopropyl]carbonyl}amino)-7-methoxy-3,4-dihydro-2H-chromen-2-yl]benzoic acid) coupled with the control potentiator sets the 100% response to measure the correction of the mutated CFTR channel. The maximum percent activity is reported relative to the positive control value.
The % activity measured at each of the 6 test concentrations of the test compound was normalized to the on-plate positive control using the following formula: % activity=[[…]]*100 […]

Setting [3] is: relative to positive control (3 μM) coupled with control potentiator.

pEC50: −log10 of the molar value.

One may read the pEC50 as −log10 of the EC50, conventionally taken in molar units.

T2 sequence (P13569 with tags, fused parts or gaps DEL508-508): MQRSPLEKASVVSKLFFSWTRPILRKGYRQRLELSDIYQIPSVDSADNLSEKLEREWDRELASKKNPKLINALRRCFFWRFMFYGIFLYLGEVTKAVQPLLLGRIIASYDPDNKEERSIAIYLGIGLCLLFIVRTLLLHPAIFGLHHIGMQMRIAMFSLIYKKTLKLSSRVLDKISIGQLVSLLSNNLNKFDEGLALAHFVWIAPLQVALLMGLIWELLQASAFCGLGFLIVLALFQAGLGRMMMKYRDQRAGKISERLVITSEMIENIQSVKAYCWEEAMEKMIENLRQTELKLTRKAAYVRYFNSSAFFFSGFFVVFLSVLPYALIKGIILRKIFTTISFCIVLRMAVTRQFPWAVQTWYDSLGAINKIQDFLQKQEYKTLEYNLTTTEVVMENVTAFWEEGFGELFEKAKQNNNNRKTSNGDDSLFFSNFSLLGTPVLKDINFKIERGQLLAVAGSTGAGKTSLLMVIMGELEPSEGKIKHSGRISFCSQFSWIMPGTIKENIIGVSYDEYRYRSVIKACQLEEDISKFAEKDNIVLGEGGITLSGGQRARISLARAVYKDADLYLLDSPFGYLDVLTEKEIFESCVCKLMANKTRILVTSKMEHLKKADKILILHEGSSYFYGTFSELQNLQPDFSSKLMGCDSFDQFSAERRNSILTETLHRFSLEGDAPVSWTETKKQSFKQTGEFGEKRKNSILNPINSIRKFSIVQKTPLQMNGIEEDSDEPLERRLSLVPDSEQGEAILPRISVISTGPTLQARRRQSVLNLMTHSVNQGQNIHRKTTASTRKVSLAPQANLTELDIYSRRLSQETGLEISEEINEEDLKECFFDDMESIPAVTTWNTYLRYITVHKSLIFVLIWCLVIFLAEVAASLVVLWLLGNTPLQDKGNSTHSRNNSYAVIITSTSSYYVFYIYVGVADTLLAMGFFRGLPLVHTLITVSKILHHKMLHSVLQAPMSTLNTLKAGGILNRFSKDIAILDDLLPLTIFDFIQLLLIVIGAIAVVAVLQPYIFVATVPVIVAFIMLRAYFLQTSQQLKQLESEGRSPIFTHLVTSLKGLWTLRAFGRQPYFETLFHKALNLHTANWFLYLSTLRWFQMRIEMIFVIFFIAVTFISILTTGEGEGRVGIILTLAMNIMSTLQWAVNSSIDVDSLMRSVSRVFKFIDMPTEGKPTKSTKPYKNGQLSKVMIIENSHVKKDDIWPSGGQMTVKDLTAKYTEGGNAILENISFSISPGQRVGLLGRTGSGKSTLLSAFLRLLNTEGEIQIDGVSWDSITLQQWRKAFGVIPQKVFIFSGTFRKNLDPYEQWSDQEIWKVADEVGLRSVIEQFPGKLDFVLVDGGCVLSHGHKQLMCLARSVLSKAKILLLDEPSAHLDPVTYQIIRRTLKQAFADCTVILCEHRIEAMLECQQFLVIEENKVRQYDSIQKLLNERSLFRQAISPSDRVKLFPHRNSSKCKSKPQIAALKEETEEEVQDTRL
T1 sequence (P13569 with tags, fused parts or gaps DEL508-508 limits assumed): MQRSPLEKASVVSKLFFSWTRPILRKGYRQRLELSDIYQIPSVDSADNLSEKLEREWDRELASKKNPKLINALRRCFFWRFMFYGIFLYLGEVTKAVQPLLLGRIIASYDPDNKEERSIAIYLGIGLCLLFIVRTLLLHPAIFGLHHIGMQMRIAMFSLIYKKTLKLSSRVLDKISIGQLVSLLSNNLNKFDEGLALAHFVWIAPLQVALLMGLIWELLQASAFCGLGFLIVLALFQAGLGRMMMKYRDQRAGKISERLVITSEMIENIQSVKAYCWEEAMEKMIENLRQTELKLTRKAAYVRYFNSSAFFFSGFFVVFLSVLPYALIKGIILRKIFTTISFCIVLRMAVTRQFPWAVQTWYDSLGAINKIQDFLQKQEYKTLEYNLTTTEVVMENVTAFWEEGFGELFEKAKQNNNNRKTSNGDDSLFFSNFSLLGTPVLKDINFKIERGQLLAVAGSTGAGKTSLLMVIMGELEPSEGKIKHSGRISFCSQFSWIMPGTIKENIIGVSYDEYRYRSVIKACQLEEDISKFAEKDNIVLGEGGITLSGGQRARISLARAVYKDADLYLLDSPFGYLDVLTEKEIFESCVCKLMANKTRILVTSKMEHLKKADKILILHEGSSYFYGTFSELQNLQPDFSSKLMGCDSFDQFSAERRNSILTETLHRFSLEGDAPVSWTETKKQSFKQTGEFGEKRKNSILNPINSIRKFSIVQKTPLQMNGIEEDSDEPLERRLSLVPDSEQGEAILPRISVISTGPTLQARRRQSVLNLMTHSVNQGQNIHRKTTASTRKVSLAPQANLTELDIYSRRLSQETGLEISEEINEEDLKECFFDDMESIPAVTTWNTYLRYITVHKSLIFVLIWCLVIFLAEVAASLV
T1 sequence (P13569 919-1480 limits assumed, stated change not applied): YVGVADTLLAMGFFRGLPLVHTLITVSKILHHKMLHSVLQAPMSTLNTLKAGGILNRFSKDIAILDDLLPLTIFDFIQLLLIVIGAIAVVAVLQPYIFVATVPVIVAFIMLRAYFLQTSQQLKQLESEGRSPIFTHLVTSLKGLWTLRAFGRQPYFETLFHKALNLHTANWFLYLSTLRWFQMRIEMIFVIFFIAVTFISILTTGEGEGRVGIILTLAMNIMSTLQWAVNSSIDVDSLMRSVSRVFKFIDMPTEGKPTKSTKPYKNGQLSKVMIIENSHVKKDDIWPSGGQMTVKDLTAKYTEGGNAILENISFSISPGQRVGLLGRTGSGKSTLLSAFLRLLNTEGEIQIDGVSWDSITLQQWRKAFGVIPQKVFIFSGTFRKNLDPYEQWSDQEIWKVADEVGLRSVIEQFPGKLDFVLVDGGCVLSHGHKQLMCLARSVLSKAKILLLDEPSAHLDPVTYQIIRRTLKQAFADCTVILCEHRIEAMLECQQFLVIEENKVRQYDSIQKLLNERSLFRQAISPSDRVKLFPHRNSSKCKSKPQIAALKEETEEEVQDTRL

As to `C[C@]1(C(=O)N[C@@H]2C[C@H]([C@H]3CC[C@H](C(=O)NCCO)CC3)Oc3cc(OC(F)(F)F)ccc32)COc2cc3c(cc21)OC(F)(F)O3` [Example 261, (7R)-2,2-difluoro-N-[(2R,4R)-2-{trans-4-[(2-hydroxyethyl)carbamoyl]cyclohexyl}-7-(trifluoromethoxy)-3,4-dihydro-2H-1-benzopyran-4-yl]-7-methyl-6,7-dihydro-2H-furo[2,3-f][1,3]benzodioxole-7-carboxamide], the values for the pEC50 in test [1] and in test [2] were 7.22 and 7.68, respectively. Also, the results for the “Maximum % activity (%)” value in test [1] and in test [2] (setting [3]) were 157% and 104%, respectively.

On to `Cc1ccc(NC(=O)[C@@]2(C)COc3cc4c(cc32)OC(F)(F)O4)nc1-c1cccc(C(=O)O)c1` [Example 6, 3-(6-{[(7R)-2,2-difluoro-7-methyl-6,7-dihydro-2H-furo[2,3-f][1,3]benzodioxole-7-carbonyl]amino}-3-methylpyridin-2-yl)benzoic acid], for which the pEC50 in test [1] is 6.54; in test [2], 6.70. The “Maximum % activity (%)” value is 157% in test [1] and 103% in test [2] (setting [3]).

With `COc1ccc2c(c1)O[C@@H](c1ccc(CO)cn1)C[C@H]2NC(=O)[C@@]1(C)COc2cc3c(cc21)OC(F)(F)O3` [Example 174, (7R)-2,2-difluoro-N-{(2R,4R)-2-[5-(hydroxymethyl)pyridin-2-yl]-7-methoxy-3,4-dihydro-2H-1-benzopyran-4-yl}-7-methyl-6,7-dihydro-2H-furo[2,3-f][1,3]benzodioxole-7-carboxamide], the negative logarithm of the EC50 (pEC50) was 6.92 in test [1] and 7.82 in test [2]. Also, the “Maximum % activity (%)” value in test [1] was determined as 118%; in test [2] (setting [3]) it was 94%.

For `Cc1ccc(NC(=O)[C@@]2(C)COc3cc4c(cc32)OC(F)(F)O4)nc1-c1ccc(C(=O)O)cc1` [Example 83, 4-(6-{[(7R)-2,2-difluoro-7-methyl-6,7-dihydro-2H-furo[2,3-f][1,3]benzodioxole-7-carbonyl]amino}-3-methylpyridin-2-yl)benzoic acid], in test [1], the negative-log EC50 (pEC50) was 6.62 and the “Maximum % activity (%)” value was 172%. Besides, the “Maximum % activity (%)” value in test [2] (testing concentration 10 μM) is on record as 100%.

For the molecule `COc1ccc2c(c1)O[C@@H](c1cccc(C(=O)O)c1)C[C@H]2NC(=O)C1(C)COc2cc3c(cc21)OC(F)(F)O3` (stereo partly drawn) [Example 11, 3-{(2R,4R)-4-[(2,2-difluoro-7-methyl-6,7-dihydro-2H-furo[2,3-f][1,3]benzodioxole-7-carbonyl)amino]-7-methoxy-3,4-dihydro-2H-1-benzopyran-2-yl}benzoic acid], in test [1], the negative logarithm of the EC50 (pEC50) was 6.29 and the “Maximum % activity (%)” value is on record as 166%. The “Maximum % activity (%)” value in test [2] (testing concentration 1 μM) is on record as 91%.

As to `CC1(c2cc3cc(NC(=O)[C@@]4(C)COc5cc6c(cc54)OC(F)(F)O6)c(F)cc3n2C[C@@H](O)CO)COC1` [Example 171, (7R)—N-{1-[(2R)-2,3-dihydroxypropyl]-6-fluoro-2-(3-methyloxetan-3-yl)-1H-indol-5-yl}-2,2-difluoro-7-methyl-6,7-dihydro-2H-furo[2,3-f][1,3]benzodioxole-7-carboxamide], the negative-log EC50 (pEC50) in test [1] is 6.18; in test [2], 6.45. In addition, the “Maximum % activity (%)” value in test [1] was 92%; in test [2] (setting [3]) it was 45%.

On to `CC(C)(CO)c1cc2cc(NC(=O)[C@@]3(C)COc4cc5c(cc43)OC(F)(F)O5)c(F)cc2n1C[C@@H](O)CC#N` [Example 179, (7R)—N-{1-[(2S)-3-cyano-2-hydroxypropyl]-6-fluoro-2-(1-hydroxy-2-methylpropan-2-yl)-1H-indol-5-yl}-2,2-difluoro-7-methyl-6,7-dihydro-2H-furo[2,3-f][1,3]benzodioxole-7-carboxamide], for which the negative logarithm of the EC50 (pEC50) in test [1] is 6.55; in test [2] it was 6.83. Moreover, the “Maximum % activity (%)” value turned out to be 108% in test [1] and 70% in test [2] (setting [3]).

In test [1], `Cc1ccc(NC(=O)C2(C)CCc3c2ccc2c3OCO2)cc1-c1cccc(C(=O)O)c1` (stereo not drawn) [Example 36, 2′-methyl-5′-[(6-methyl-7,8-dihydro-2H,6H-indeno[4,5-d][1,3]dioxole-6-carbonyl)amino][1,1′-biphenyl]-3-carboxylic acid] gave a negative logarithm of the EC50 (pEC50) of 5.91. Further, the results for the “Maximum % activity (%)” value in test [1] and in test [2] (testing concentration 10 μM) were 79% and 77%, respectively.

Take `C[C@]1(C(=O)N[C@@H]2C[C@H](C3(C(=O)O)CC3)Oc3cc(OC(F)(F)F)ccc32)COc2cc3c(cc21)OC(F)(F)O3` [Example 166, 1-[(2R,4R)-4-{[(7R)-2,2-difluoro-7-methyl-6,7-dihydro-2H-furo[2,3-f][1,3]benzodioxole-7-carbonyl]amino}-7-(trifluoromethoxy)-3,4-dihydro-2H-1-benzopyran-2-yl]cyclopropane-1-carboxylic acid]: the figures for the pEC50 in test [1] and in test [2] were 7.52 and 7.96, respectively. Besides, the entries for the “Maximum % activity (%)” value in test [1] and in test [2] (setting [3]) were 129% and 84%, respectively.

Consider `CCCN(CCO)C(=O)[C@H]1CC[C@H]([C@H]2C[C@@H](NC(=O)[C@@]3(C)COc4cc5c(cc43)OC(F)(F)O5)c3ccc(OC(F)(F)F)cc3O2)CC1` [Example 263, (7R)-2,2-difluoro-N-[(2R,4R)-2-{trans-4-[(2-hydroxyethyl)(propyl)carbamoyl]cyclohexyl}-7-(trifluoromethoxy)-3,4-dihydro-2H-1-benzopyran-4-yl]-7-methyl-6,7-dihydro-2H-furo[2,3-f][1,3]benzodioxole-7-carboxamide], for which the results for the pEC50 in test [1] and in test [2] were 7.15 and 8.40, respectively. The figures for the “Maximum % activity (%)” value in test [1] and in test [2] (setting [3]) were 167% and 118%, respectively.

As to `COc1ccc2c(c1)O[C@@H](c1cnc(C(=O)O)cn1)C[C@H]2NC(=O)[C@@]1(C)COc2cc3c(cc21)OC(F)(F)O3` [Example 144, 5-[(2R,4R)-4-{[(7R)-2,2-difluoro-7-methyl-6,7-dihydro-2H-furo[2,3-f][1,3]benzodioxole-7-carbonyl]amino}-7-methoxy-3,4-dihydro-2H-1-benzopyran-2-yl]pyrazine-2-carboxylic acid], the values for the negative-log EC50 (pEC50) in test [1] and in test [2] were 5.88 and 6.26, respectively. Besides, the “Maximum % activity (%)” value is 157% in test [1] and 78% in test [2] (setting [3]).

For `COc1ccc2c(c1)O[C@@H](c1ccc(C(=O)NCC(C)(C)O)cn1)C[C@H]2NC(=O)[C@@]1(C)COc2cc3c(cc21)OC(F)(F)O3` [Example 214, 6-[(2R,4R)-4-{[(7R)-2,2-difluoro-7-methyl-6,7-dihydro-2H-furo[2,3-f][1,3]benzodioxole-7-carbonyl]amino}-7-methoxy-3,4-dihydro-2H-1-benzopyran-2-yl]-N-(2-hydroxy-2-methylpropyl)pyridine-3-carboxamide], the pEC50 in test [1] is 7.22; in test [2] it was 7.80. Further, the “Maximum % activity (%)” value in test [1] came out at 114%; in test [2] (setting [3]) it was 88%.
